In ChEMBL document CHEMBL2385026, “Identification of C-2 hydroxyethyl imidazopyrrolopyridines as potent JAK1 inhibitors with favorable physicochemical properties and high selectivity over JAK2” (J Med Chem, 2013):

Legend:
[1] = Hepatic clearance in human liver microsomes by LC/MS/MS analysis; type: ADME, Microsome
[2] = Apparent permeability across apical to basolateral side in dog MDCK cells; type: ADME, cell-based, Canis lupus familiaris
[3] = Hepatic clearance in human hepatocytes after 1 to 4 hrs by LC/MS/MS analysis; type: ADME, cell-based, Liver, Hepatocyte
[4] = target: T1, Tyrosine-protein kinase JAK1 (Homo sapiens, UniProt P23458)
T1 sequence (P23458 whole entry): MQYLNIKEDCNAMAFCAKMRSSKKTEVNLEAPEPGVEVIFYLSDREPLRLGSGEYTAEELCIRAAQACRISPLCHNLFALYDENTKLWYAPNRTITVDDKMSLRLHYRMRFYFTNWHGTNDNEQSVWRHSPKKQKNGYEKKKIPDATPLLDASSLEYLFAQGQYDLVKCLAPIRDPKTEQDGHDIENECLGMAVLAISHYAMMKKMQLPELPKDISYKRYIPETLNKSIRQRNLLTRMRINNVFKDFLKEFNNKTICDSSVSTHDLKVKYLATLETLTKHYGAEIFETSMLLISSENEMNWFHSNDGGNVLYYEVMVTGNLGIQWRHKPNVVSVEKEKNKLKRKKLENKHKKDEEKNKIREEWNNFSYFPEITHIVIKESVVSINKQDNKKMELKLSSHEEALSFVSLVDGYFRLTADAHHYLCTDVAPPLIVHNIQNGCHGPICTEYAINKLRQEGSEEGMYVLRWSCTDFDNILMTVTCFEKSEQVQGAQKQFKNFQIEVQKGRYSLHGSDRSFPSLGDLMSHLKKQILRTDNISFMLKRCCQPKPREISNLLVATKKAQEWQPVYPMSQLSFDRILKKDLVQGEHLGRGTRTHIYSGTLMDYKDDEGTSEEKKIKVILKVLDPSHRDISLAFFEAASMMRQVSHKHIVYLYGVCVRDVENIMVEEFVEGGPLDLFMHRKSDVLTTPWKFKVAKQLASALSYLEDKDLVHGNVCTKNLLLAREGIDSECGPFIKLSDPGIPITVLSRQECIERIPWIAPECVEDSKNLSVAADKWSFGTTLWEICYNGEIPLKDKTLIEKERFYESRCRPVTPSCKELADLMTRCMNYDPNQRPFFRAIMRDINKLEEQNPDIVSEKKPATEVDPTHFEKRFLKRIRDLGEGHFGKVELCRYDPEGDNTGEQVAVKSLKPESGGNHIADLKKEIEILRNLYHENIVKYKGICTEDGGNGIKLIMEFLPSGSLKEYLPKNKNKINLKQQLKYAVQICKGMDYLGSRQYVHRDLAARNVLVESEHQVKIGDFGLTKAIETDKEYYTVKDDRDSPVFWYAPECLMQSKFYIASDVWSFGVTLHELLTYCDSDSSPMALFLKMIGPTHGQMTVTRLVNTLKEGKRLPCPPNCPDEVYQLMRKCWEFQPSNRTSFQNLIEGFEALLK

[5] = target: T1, Tyrosine-protein kinase JAK1; remark: listed apart in the source
[6] = target: T1, Tyrosine-protein kinase JAK1; remark: listed apart in the source
[7] = target: T2, Tyrosine-protein kinase JAK2 (Homo sapiens, UniProt O60674); type: cell-based, TF-1
T2 sequence (O60674 whole entry): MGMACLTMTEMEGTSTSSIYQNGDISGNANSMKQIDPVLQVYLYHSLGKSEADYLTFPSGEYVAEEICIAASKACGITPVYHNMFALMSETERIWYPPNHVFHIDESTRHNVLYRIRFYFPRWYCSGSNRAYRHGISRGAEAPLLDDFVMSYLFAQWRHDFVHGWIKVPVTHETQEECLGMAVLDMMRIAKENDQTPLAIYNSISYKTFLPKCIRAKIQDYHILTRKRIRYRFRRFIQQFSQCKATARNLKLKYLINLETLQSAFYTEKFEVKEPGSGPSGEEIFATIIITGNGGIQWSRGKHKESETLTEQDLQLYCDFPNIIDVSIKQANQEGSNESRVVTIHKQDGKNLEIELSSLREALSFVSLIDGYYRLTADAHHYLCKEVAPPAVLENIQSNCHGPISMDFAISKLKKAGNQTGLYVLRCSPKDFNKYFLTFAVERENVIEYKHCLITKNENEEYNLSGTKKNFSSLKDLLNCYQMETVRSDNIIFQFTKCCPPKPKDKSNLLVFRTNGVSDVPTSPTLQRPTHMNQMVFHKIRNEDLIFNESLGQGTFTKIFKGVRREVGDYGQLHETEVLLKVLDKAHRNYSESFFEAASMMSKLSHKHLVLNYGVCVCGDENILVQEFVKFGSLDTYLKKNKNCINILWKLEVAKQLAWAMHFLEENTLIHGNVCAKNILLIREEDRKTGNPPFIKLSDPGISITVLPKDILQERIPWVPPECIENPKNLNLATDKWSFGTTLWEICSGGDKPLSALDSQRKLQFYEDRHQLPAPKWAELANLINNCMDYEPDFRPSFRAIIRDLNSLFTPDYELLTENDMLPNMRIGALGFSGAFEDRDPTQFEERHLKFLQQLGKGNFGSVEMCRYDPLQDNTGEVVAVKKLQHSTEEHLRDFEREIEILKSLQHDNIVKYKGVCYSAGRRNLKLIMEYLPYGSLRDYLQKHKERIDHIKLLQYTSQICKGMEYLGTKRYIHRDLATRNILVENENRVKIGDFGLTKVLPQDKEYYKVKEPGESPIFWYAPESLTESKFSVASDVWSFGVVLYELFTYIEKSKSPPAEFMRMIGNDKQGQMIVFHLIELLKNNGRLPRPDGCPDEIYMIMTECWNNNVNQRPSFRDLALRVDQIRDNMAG

[8] = target: T2, Tyrosine-protein kinase JAK2

Row | Structure (SMILES) | CLhep predicted [1] | Papp A→B [2] | CLhep predicted [3] | Ki [4] | EC50 [5] | EC50 [6] | EC50 [7] | Ki [8]
1 | CO[C@H]1CC[C@H](n2c([C@@H](C)O)nc3cnc4[nH]ccc4c32)CC1 | 1.3 mL/min/kg | 6.7 ×10⁻⁶ cm/s | 5.9 mL/min/kg | – | – | – | – | –
2 | CC(C)(O)c1nc2cnc3[nH]ccc3c2n1C1CCCCC1 | – | 19 ×10⁻⁶ cm/s | – | 13 nM | 330 nM | – | 4400 nM | 76 nM
3 | C[C@@H](O)c1nc2cnc3[nH]ccc3c2n1[C@H]1CC[C@H](O)CC1 | 1.9 mL/min/kg | – | – | – | 410 nM | 730 nM | – | –
4 | CC[C@@H](O)c1nc2cnc3[nH]ccc3c2n1C1CCCCC1 | 7.6 mL/min/kg | 22 ×10⁻⁶ cm/s | 12 mL/min/kg | – | – | – | – | –
5 | C[C@@H](O)c1nc2cnc3[nH]ccc3c2n1[C@H]1CC[C@@H](NCC(F)(F)F)CC1 | 18 mL/min/kg | – | 16 mL/min/kg | 53 nM | – | – | – | –
6 | C[C@@H](O)c1nc2cnc3[nH]ccc3c2n1C1CCOCC1 | – | – | – | 31 nM | – | – | – | –
7 | C[C@H](O)c1nc2cnc3[nH]ccc3c2n1C1CCCCC1 | – | – | – | – | – | – | 5300 nM | 90 nM
8 | C[C@@H](O)c1nc2cnc3[nH]ccc3c2n1C1CCCCC1 | – | 23 ×10⁻⁶ cm/s | – | – | – | – | 1700 nM | 21 nM
9 | C[C@@H](O)c1nc2cnc3[nH]ccc3c2n1[C@@H]1CCCN(C(=O)CC(F)(F)F)C1 | 5.2 mL/min/kg | – | – | 43 nM | – | – | – | –
10 | C[C@@H](O)c1nc2cnc3[nH]ccc3c2n1[C@@H]1CCCOC1 | 4.6 mL/min/kg | – | – | 68 nM | – | – | – | –
11 | C[C@@H](O)c1nc2cnc3[nH]ccc3c2n1[C@@H]1CCC[C@@H](O)C1 | – | 1.1 ×10⁻⁶ cm/s | – | – | 120 nM | 140 nM | – | –

More lines, now with the values ahead:

Row | CLhep predicted [1] | Papp A→B [2] | CLhep predicted [3] | Ki [4] | EC50 [5] | EC50 [6] | EC50 [7] | Ki [8] | Structure (SMILES)
12 | 4.2 mL/min/kg | 1.9 ×10⁻⁶ cm/s | 6.8 mL/min/kg | 3.4 nM | 510 nM | 320 nM | – | – | C[C@@H](O)c1nc2cnc3[nH]ccc3c2n1C1CCN(CCC#N)CC1
13 | 3.6 mL/min/kg | 2.8 ×10⁻⁶ cm/s | 1.1 mL/min/kg | 1.1 nM | 57 nM | 62 nM | – | – | C[C@@H](O)c1nc2cnc3[nH]ccc3c2n1[C@H]1CC[C@H](NCC(F)F)CC1
14 | 1 mL/min/kg | 0.2 ×10⁻⁶ cm/s | – | 5.2 nM | 8200 nM | – | – | – | C[C@@H](O)c1nc2cnc3[nH]ccc3c2n1[C@@H]1CCCN(C(=O)CC#N)C1
15 | 2.9 mL/min/kg | 15 ×10⁻⁶ cm/s | 3.7 mL/min/kg | 2 nM | 88 nM | 330 nM | – | – | CCN1CCC(n2c([C@@H](C)O)nc3cnc4[nH]ccc4c32)C(F)(F)C1 (some centres not stated)
16 | 2.1 mL/min/kg | – | – | 12 nM | 380 nM | – | – | – | C[C@@H](O)c1nc2cnc3[nH]ccc3c2n1[C@H]1CC[C@@H](O)CC1
17 | 5.6 mL/min/kg | 24 ×10⁻⁶ cm/s | 19 mL/min/kg | 1.1 nM | 64 nM | 313 nM | 730 nM | 8.3 nM | OCc1nc2cnc3[nH]ccc3c2n1C1CCCCC1
18 | 5.6 mL/min/kg | 10 ×10⁻⁶ cm/s | 3.5 mL/min/kg | 1.2 nM | 74 nM | 82 nM | – | – | C[C@@H](O)c1nc2cnc3[nH]ccc3c2n1[C@H]1CC[C@H](NCC(F)(F)F)C1
19 | 5.3 mL/min/kg | 23 ×10⁻⁶ cm/s | 17 mL/min/kg | 3.5 nM | 130 nM | 1500 nM | 1500 nM | 18 nM | OCCc1nc2cnc3[nH]ccc3c2n1C1CCCCC1
20 | 4.3 mL/min/kg | 4.2 ×10⁻⁶ cm/s | 5.6 mL/min/kg | 0.9 nM | 49 nM | 78 nM | – | – | C[C@@H](O)c1nc2cnc3[nH]ccc3c2n1[C@H]1CC[C@@H](C#N)CC1
21 | 9.2 mL/min/kg | 25 ×10⁻⁶ cm/s | 8.5 mL/min/kg | 2.6 nM | 110 nM | 820 nM | – | – | C[C@@H](O)c1nc2cnc3[nH]ccc3c2n1C1CCN(CC(F)(F)F)CC1
22 | – | – | – | 7.2 nM | 320 nM | – | – | – | OC[C@H](O)c1nc2cnc3[nH]ccc3c2n1C1CCCCC1
23 | 1.8 mL/min/kg | 16 ×10⁻⁶ cm/s | 6.8 mL/min/kg | 1.6 nM | 69 nM | 220 nM | – | – | OC[C@@H](O)c1nc2cnc3[nH]ccc3c2n1C1CCCCC1
